Laboratory results from patent publication US12187723B2 (BRISTOL-MYERS SQUIBB COMPANY, priority 2019, dated 2025).

Legend:
human TLR8 = target: T1, human TLR8 (Homo sapiens, UniProt Q9NR97); assay: TLR8 inhibition reporter assay (HEK-Blue SEAP); format: cell-based; conditions: HEK-Blue cells overexpressing human TLR8, R848 15.9 μM, 22 hour incubation
T1 construct: host or cells: HEK-Blue cells
T1 sequence (Q9NR97 27-1041): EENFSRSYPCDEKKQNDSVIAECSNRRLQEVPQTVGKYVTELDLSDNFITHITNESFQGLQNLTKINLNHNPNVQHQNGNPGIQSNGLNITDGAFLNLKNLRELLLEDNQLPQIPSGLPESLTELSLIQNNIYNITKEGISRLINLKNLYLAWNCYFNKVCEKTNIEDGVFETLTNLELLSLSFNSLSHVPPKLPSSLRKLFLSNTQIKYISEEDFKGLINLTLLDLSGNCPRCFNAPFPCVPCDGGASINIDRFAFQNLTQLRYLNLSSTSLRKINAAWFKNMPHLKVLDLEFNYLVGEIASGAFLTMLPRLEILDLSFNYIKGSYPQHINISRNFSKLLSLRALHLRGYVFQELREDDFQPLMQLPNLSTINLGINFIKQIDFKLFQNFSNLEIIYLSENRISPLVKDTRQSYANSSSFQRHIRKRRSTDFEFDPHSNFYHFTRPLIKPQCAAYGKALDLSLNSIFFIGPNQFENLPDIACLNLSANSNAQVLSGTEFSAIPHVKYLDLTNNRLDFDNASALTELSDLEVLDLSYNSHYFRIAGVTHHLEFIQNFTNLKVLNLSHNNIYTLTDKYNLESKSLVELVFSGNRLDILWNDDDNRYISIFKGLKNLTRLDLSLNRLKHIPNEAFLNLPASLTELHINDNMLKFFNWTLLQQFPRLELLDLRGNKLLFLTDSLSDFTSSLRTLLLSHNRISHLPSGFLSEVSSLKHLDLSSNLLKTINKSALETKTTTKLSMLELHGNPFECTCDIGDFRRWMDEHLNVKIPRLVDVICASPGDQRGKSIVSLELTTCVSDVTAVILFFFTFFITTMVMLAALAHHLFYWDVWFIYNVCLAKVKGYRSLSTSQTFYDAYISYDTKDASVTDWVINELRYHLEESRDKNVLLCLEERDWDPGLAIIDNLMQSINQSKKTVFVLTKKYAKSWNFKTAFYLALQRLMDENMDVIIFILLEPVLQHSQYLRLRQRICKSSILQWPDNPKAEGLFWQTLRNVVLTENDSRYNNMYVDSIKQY
Summary of the method: (§1)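 Agonists used: gardiquimod 7.5 μM (TLR7), R848 15.9 μM (TLR8), ODN2006 5 nM (TLR9), added after 30 min room-temperature compound pre-treatment (0.05 nM–50 μM) of receptor-overexpressing HEK-Blue cells. SEAP reporter (NF-κB/AP-1 driven) read after 22 h at 37 °C; inhibition scaled between agonist+DMSO and reference-inhibitor wells.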

human TLR9 = target: T2, human TLR9 (Homo sapiens, UniProt Q9NR96); assay: TLR9 inhibition reporter assay (HEK-Blue SEAP); format: cell-based; conditions: HEK-Blue cells overexpressing human TLR9, ODN2006 5 nM, 22 hour incubation
T2 construct: host or cells: HEK-Blue cells
T2 sequence (Q9NR96 26-1032): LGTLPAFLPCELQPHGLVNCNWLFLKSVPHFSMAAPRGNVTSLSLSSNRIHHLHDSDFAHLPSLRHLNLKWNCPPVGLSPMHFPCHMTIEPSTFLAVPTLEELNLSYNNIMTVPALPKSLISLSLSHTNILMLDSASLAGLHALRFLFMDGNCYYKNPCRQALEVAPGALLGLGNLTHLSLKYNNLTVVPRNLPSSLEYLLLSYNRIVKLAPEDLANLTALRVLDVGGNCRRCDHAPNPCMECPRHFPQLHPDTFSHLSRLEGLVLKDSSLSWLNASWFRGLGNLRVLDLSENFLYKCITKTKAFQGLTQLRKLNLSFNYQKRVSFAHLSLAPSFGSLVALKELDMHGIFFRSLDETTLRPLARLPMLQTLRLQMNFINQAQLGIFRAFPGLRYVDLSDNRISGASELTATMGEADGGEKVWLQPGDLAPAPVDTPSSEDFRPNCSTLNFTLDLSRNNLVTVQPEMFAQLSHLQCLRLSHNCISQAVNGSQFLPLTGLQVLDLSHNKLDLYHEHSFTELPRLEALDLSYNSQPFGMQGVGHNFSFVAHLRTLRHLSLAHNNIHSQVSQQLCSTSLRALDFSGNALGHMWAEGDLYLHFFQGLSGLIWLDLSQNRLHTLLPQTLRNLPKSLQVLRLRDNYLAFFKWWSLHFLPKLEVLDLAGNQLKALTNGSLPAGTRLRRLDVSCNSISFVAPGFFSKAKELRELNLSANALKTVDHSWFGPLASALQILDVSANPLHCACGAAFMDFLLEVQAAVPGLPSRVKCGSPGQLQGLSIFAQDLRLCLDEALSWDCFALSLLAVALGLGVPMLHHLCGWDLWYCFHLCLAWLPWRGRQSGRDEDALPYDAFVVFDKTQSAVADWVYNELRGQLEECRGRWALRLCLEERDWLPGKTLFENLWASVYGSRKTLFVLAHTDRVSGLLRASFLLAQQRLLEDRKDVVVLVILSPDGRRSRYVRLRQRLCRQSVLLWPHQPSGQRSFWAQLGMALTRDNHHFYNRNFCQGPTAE
Summary of the method: as §1

SMILES	IC50 (human TLR8) [nM]	IC50 (human TLR9) [nM]
COc1cc(-c2cc3[nH]c(=O)n(C4CCC(N5CC6(C5)CS(=O)(=O)C6)CC4)c3cc2C(C)C)cn2ncnc12 (single isomer, unassigned) [Example 245, 1-(4-(2,2-dioxido-2-thia-6-azaspiro[3.3]heptan-6-yl)cyclohexyl)-6-isopropyl-5-(8-methoxy-[1,2,4]triazolo[1,5-a]pyridin-6-yl)-1,3-dihydro-2H-benzo[d]imidazol-2-one]	11.7	17300
COc1cc(-c2cc3[nH]c(=O)n(C4CCC(N5CCC(F)(F)CC5)CC4)c3cc2C(C)C)cn2ncnc12 (single isomer, unassigned) [Example 246, 1-(4-(4,4-difluoropiperidin-1-yl)cyclohexyl)-6-isopropyl-5-(8-methoxy-[1,2,4]triazolo[1,5-a]pyridin-6-yl)-1,3-dihydro-2H-benzo[d]imidazol-2-one]	0.16	15500
COc1cc(-c2cc3[nH]c(=O)n(C4CCC(N5CCC(F)(F)CC5)CC4)c3cc2C(C)C)cn2ncnc12 (single isomer, unassigned) [Example 247, 1-(4-(4,4-difluoropiperidin-1-yl)cyclohexyl)-6-isopropyl-5-(8-methoxy-[1,2,4]triazolo[1,5-a]pyridin-6-yl)-1,3-dihydro-2H-benzo[d]imidazol-2-one]	0.7	14900
COc1cc(-c2cc3[nH]c(=O)n(C4CCC(N(C)CCC(F)(F)F)CC4)c3cc2C(C)C)cn2ncnc12 (single isomer, unassigned) [Example 248, 6-isopropyl-5-(8-methoxy-[1,2,4]triazolo[1,5-a]pyridin-6-yl)-1-(4-(methyl(3,3,3-trifluoropropyl)amino)cyclohexyl)-1,3-dihydro-2H-benzo[d]imidazol-2-one]	0.17	9770
COc1cc(-c2cc3[nH]c(=O)n(C4CCC(N(C)CCC(F)(F)F)CC4)c3cc2C(C)C)cn2ncnc12 (single isomer, unassigned) [Example 249, 6-isopropyl-5-(8-methoxy-[1,2,4]triazolo[1,5-a]pyridin-6-yl)-1-(4-(methyl(3,3,3-trifluoropropyl)amino)cyclohexyl)-1,3-dihydro-2H-benzo[d]imidazol-2-one]	0.08	2000
COc1cc(-c2cc3[nH]c(=O)n(C4CCC(N5C6CCC5COC6)CC4)c3cc2C(C)C)cn2ncnc12 (single isomer, unassigned) [Example 252, 1-(4-(3-oxa-8-azabicyclo[3.2.1]octan-8-yl)cyclohexyl)-6-isopropyl-5-(8-methoxy-[1,2,4]triazolo[1,5-a]pyridin-6-yl)-1,3-dihydro-2H-benzo[d]imidazol-2-one]	24.8	> 50000
COc1cc(-c2cc3[nH]c(=O)n(C4CCC(N5C6CCC5COC6)CC4)c3cc2C(C)C)cn2ncnc12 (single isomer, unassigned) [Example 253, 1-(4-(3-oxa-8-azabicyclo[3.2.1]octan-8-yl)cyclohexyl)-6-isopropyl-5-(8-methoxy-[1,2,4]triazolo[1,5-a]pyridin-6-yl)-1,3-dihydro-2H-benzo[d]imidazol-2-one]	4.33	11100
COc1c(C)c(-c2cc3[nH]c(=O)n(C4CCC(NCC5(S(C)(=O)=O)CC5)CC4)c3cc2C(C)C)cn2ncnc12 (single isomer, unassigned) [Example 259]	1.85	40500
COc1c(C)c(-c2cc3[nH]c(=O)n(C4CCC(NCC5(S(C)(=O)=O)CC5)CC4)c3cc2C(C)C)cn2ncnc12 (single isomer, unassigned) [Example 260]	0.38	6360
COc1c(C)c(-c2cc3[nH]c(=O)n(C4CCC(N5CCCOCC5)CC4)c3cc2C(C)C)cn2ncnc12 (single isomer, unassigned) [Example 261, 1-(4-(1,4-oxazepan-4-yl)cyclohexyl)-6-isopropyl-5-(8-methoxy-7-methyl-[1,2,4]triazolo[1,5-a]pyridin-6-yl)-1,3-dihydro-2H-benzo[d]imidazol-2-one]	2.23	18700
COc1c(C)c(-c2cc3[nH]c(=O)n(C4CCC(N5CCCOCC5)CC4)c3cc2C(C)C)cn2ncnc12 (single isomer, unassigned) [Example 262, 1-(4-(1,4-oxazepan-4-yl)cyclohexyl)-6-isopropyl-5-(8-methoxy-7-methyl-[1,2,4]triazolo[1,5-a]pyridin-6-yl)-1,3-dihydro-2H-benzo[d]imidazol-2-one]	0.68	15500
COc1c(C)c(-c2cc3[nH]c(=O)n(C4CCC(N5CC(F)C5)CC4)c3cc2C(C)C)cn2ncnc12 (single isomer, unassigned) [Example 263, 1-(4-(3-fluoroazetidin-1-yl)cyclohexyl)-6-isopropyl-5-(8-methoxy-7-methyl-[1,2,4]triazolo[1,5-a]pyridin-6-yl)-1,3-dihydro-2H-benzo[d]imidazol-2-one]	2.91	19700
COc1c(C)c(-c2cc3[nH]c(=O)n(C4CCC(N5CC(F)C5)CC4)c3cc2C(C)C)cn2ncnc12 (single isomer, unassigned) [Example 264, 1-(4-(3-fluoroazetidin-1-yl)cyclohexyl)-6-isopropyl-5-(8-methoxy-7-methyl-[1,2,4]triazolo[1,5-a]pyridin-6-yl)-1,3-dihydro-2H-benzo[d]imidazol-2-one]	5.93	17500
COc1c(C)c(-c2cc3[nH]c(=O)n(C4CCC(N5CCC6(CC5)COC6)CC4)c3cc2C(C)C)cn2ncnc12 (single isomer, unassigned) [Example 267, 1-(4-(2-oxa-7-azaspiro[3.5]nonan-7-yl)cyclohexyl)-6-isopropyl-5-(8-methoxy-7-methyl-[1,2,4]triazolo[1,5-a]pyridin-6-yl)-1,3-dihydro-2H-benzo[d]imidazol-2-one]	0.12	> 50000
COc1c(C)c(-c2cc3[nH]c(=O)n(C4CCC(N5CCC6(CC5)COC6)CC4)c3cc2C(C)C)cn2ncnc12 (single isomer, unassigned) [Example 268, 1-(4-(2-oxa-7-azaspiro[3.5]nonan-7-yl)cyclohexyl)-6-isopropyl-5-(8-methoxy-7-methyl-[1,2,4]triazolo[1,5-a]pyridin-6-yl)-1,3-dihydro-2H-benzo[d]imidazol-2-one]	1.08	17400
COc1c(C)c(-c2cc3[nH]c(=O)n(C4CCC(N5CC6(COC6)C5)CC4)c3cc2C(C)C)cn2ncnc12 (single isomer, unassigned) [Example 269, 1-(4-(2-oxa-6-azaspiro[3.3]heptan-6-yl)cyclohexyl)-6-isopropyl-5-(8-methoxy-7-methyl-[1,2,4]triazolo[1,5-a]pyridin-6-yl)-1,3-dihydro-2H-benzo[d]imidazol-2-one]	1.58	25600
